Test: Storage stability of sucralose in the acidic composition
Format: physicochemical
Settings: highly acidic in water

stability in the presence of hemostatic or dental etching agents: stable
Structure (SMILES): OC[C@H]1O[C@H](O[C@]2(CCl)O[C@H](CCl)[C@@H](O)[C@@H]2O)[C@H](O)[C@@H](O)[C@H]1Cl [sucralose, 1,6-dichloro-1,6-dideoxy-β-D-fructo-furanosyl-4-chloro-4-deoxy-α-D-galactopyranoside]

From patent US6689343B1, “Hemostatic and acid etch compositions containing sucralose” (Ultradent Products, Inc., priority 2002, dated 2004)
